Holding throughout (test): DTP human tumour cell line panel, 48 h
Test [1] deals with HS 578T breast.
Test [2] relates to SF-295 CNS.
The test system of test [3] is TK-10 renal.
The subject of test [4] is MCF7 breast.
In test [5] the test system is ACHN renal.
For test [6], the system named is SR leukemia.
The subject of test [7] is UACC-257 melanoma.
For test [8], the system named is RXF 393 renal.
Test [9] has as its system KM12 colon.
Test [10] has as its system HCT-116 colon.

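Compound exposure: 48 hours, 5 concentrations, 96-well plates. At the GI50, growth is halved. TGI denotes the concentration required for complete inhibition of growth.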 Some results are limits rather than exact numbers.

Consider `C=C/C(C)=C/C[C@]1(C)[C@H](C)[C@@H](OC(=O)CCC)[C@H](O)[C@@]23C(=C[C@H](OC)C[C@@H]12)[C@@H](OC(=O)CCC)O[C@H]3OC(C)=O`, for which the GI50 was 1.13 µM in [1]; 0.992 µM in test [2]; 0.181 µM in [3]; 1.16 µM in [4]; 0.234 µM in test [5]; 0.324 µM in test [6]. For the same compound, the GI50 in test [7] was 0.854 µM; in test [8], 0.262 µM; in [9], 0.55 µM; in test [10], 0.495 µM. In addition, the TGI in test [1] was 3.38 µM; in test [2], 2.48 µM; in test [3] it was 0.411 µM; in test [4] it was 2.91 µM; in [5], 0.619 µM; in test [6], 1.49 µM. Further, the TGI in [7] was found to be 2.56 µM; in [8] it was 0.696 µM; in test [9], 1.96 µM; in test [10], 1.96 µM.
Consider `Cn1c(=O)c2[nH]c(SCCN3CCOCC3)nc2n(C)c1=S`, for which the TGI in test [1], in test [2], in test [3], in [4], in [5] and in test [6] was above 100 µM in each case. Besides, the TGI in test [7], in [8], in [9] and in [10] was above 100 µM each time.
Regarding `CCn1c(-c2cc3c([nH]c4ccccc43)c(-c3cccc(O)c3)n2)n[nH]c1=S`, the GI50 in test [1] is 2.21 µM; in test [2], 3.24 µM; in [3] it was 3.64 µM; in [4] it was 2.79 µM; in test [5], 3.02 µM; in [6], 1.67 µM. Further, the GI50 in [7] was 4.11 µM; in test [8], 2.01 µM; in test [9] it was 3.24 µM; in test [10], 3.88 µM. The TGI in test [1] stood at 9.17 µM; in test [2] it was 22.8 µM; in test [3], 14.8 µM; in [4] it was 14 µM; in [5], 10.1 µM; in [6], 6.97 µM. Moreover, the TGI in test [7] was 16.4 µM; in test [8] it was 6.5 µM; in [9], 12.4 µM; in test [10], 15 µM.
`CCN1CCN(Cc2ccc(NC(=O)Nc3nc4ccc(Oc5ccnc(C(=O)NC)c5)cc4s3)cc2C(F)(F)F)CC1`: the GI50 in test [1] was 2.01 µM; in test [2], 1.82 µM; in test [3], 2.5 µM; in [4], 1.23 µM; in [5], 1.39 µM; in [6], 0.281 µM. Further, the GI50 is 1.86 µM in [7], 1.67 µM in test [8], 0.019 µM in test [9] and 1.73 µM in [10]. Also, the TGI amounted to 4.44 µM in [1]; 3.66 µM in test [2]; 4.54 µM in [3]; 2.89 µM in test [4]; 2.71 µM in test [5]; 0.846 µM in test [6]. The TGI amounted to 3.51 µM in [7], 3.13 µM in test [8], 1.63 µM in test [9] and 3.45 µM in test [10].
Consider `C=C1C(=O)O[C@H]2[C@H]1CC/C(COC(=O)NCc1ccc(OC)cc1)=C\CC[C@@]1(C)O[C@@H]21`, for which the GI50 in test [1] is 3.1 µM; in test [2], 11.1 µM; in test [3] it was 0.359 µM; in [4], 1.31 µM; in [5], 0.58 µM; in test [6], 0.656 µM. In addition, the GI50 was 0.766 µM in test [7], 0.509 µM in test [8], 4.75 µM in test [9] and 0.471 µM in test [10]. The TGI was found to be 30.7 µM in [1]; 25 µM in [2]; 1.51 µM in test [3]; 5.45 µM in [4]; 1.49 µM in [5]; 3.84 µM in [6]. Moreover, the TGI in test [7] came out at 2.55 µM; in test [8], 1.07 µM; in test [9], 20.5 µM; in test [10], 1.02 µM.
As for `CN1CCN(Cc2ccc(NC(=O)c3cncc(C#Cc4cnc(N)cc4C#N)c3)cc2C(F)(F)F)CC1`, the GI50 in test [1] was 1.46 µM; in test [2] it was 3.54 µM; in test [3] it was 4.92 µM; in [4], 3.64 µM; in test [5], 1.57 µM; in test [6], 4.21 µM. The GI50 in test [7] is 3.24 µM; in test [8], 1.45 µM; in test [9], 0.0632 µM; in test [10], 1.43 µM. Further, the TGI was 7.46 µM in test [1]; 15.3 µM in [2]; 17.5 µM in test [3]; 16.2 µM in [4]; 9.39 µM in test [5]; above 100 µM in test [6]. Also, the TGI is 15.4 µM in test [7], 5.55 µM in [8], 13.3 µM in test [9] and 9.85 µM in test [10].
Take `CN(C)c1nc(=NCc2ccco2)ss1`: the TGI in [1] was 78 µM; in test [2], above 61.4 µM; in [3], above 100 µM; in test [4], 33.1 µM; in test [5] it was 45 µM; in test [6], 15.3 µM. Moreover, the TGI in [7] was above 79.4 µM; in test [8] it was 16.1 µM; in test [9], above 55.7 µM; in test [10] it was 35 µM.
Take `Cc1ncc(C(=O)Nc2ccc(CN3CCN(C)CC3)c(C(F)(F)F)c2)cc1C#Cc1ccc(N)nc1`: the GI50 is 0.17 µM in test [1]; 0.908 µM in test [2]; 0.654 µM in [3]; 0.903 µM in test [4]; 0.117 µM in [5]; 0.189 µM in test [6]. Moreover, the GI50 was 0.582 µM in [7], 0.197 µM in test [8], 0.0135 µM in test [9] and 0.213 µM in [10]. Also, the TGI in [1] came out at 0.988 µM; in test [2], 4.07 µM; in test [3], 4.39 µM; in test [4] it was 4.89 µM; in [5] it was 0.995 µM; in test [6], 4.4 µM. Also, the TGI was 3.25 µM in test [7], 0.892 µM in test [8], 1.21 µM in [9] and 1.64 µM in test [10].
